Assay results published in US10526323B2, “Indazole and azaindazole substituted compounds as mGluR4 allosteric potentiators, compositions, and methods of treating neurological dysfunction” (Vanderbilt University, priority 2015, dated 2020).

Biological target: mGluR4 (UniProt Q14833)
Assay: mGluR4 potentiation assay: increase in response to an EC20 concentration of agonist (species not given)
Assay type: cell-based
Conditions: EC50 for potentiation of mGluR4; table does not state human or rat
How it was run: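 Human mGluR4 was expressed in CHO cells read with a Ca2+-sensitive dye; rat mGluR4 was co-expressed with GIRK in […] read by thallium flux. Potentiation is the rise over agonist-alone response, with EC50 and maximal potentiation from non-linear fits.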

SMILES	EC50 [nM]
Cn1ncc2cc(Nc3n[nH]c4c3CCCC4)cc(Cl)c21 [Example 67, 7-chloro-1-methyl-N-(4,5,6,7-tetrahydro-1H-indazol-3-yl)-1H-indazol-5-amine]	> 10000
Cn1nc(C2CC2)c2ccc(Nc3n[nH]c4ncc(F)cc34)cc21 [Example 5, N-(3-cyclopropyl-1-methyl-1H-indazol-6-yl)-5-fluoro-1H-pyrazolo[3,4-b]pyridin-3-amine]	364
Cc1nn(CC2CC(F)(F)C2)c2ccc(Nc3n[nH]c4cccnc34)cc12 [Example 288, N-(1-((3,3-difluorocyclobutyl)methyl)-3-methyl-1H-indazol-5-yl)-1H-pyrazolo[4,3-b]pyridin-3-amine]	680
CC1=NOC(Cn2nc(C)c3cc(Nc4n[nH]c5cccnc45)ccc32)C1 (stereo not shown) [Example 121, N-(3-methyl-1-((3-methyl-4,5-dihydroisoxazol-5-yl)methyl)-1H-indazol-5-yl)-1H-pyrazolo[4,3-b]pyridin-3-amine]	377
c1cnc2c(Nc3ccc4nn(CC5CCC5)cc4c3)n[nH]c2c1 [Example 89, N-(2-(cyclobutylmethyl)-2H-indazol-5-yl)-1H-pyrazolo[4,3-b]pyridin-3-amine]	> 10000
Cn1ncc2cc(Nc3n[nH]c4c3CCCC4)ccc21 [Example 57, 1-methyl-N-(4,5,6,7-tetrahydro-1H-indazol-3-yl)-1H-indazol-5-amine]	> 10000
Cn1nc(C(=O)N2CCCC(F)(F)C2)c2ccc(Nc3n[nH]c4cccnc34)cc21 [Example 160, (3,3-difluoro-1-piperidyl)-[1-methyl-6-(1H-pyrazolo[4,3-b]pyridin-3-ylamino)indazol-3-yl]methanone]	888
CC(C)Oc1nn(C)c2cc(Nc3n[nH]c4cccnc34)ccc12 [Example 44, N-(3-isopropoxy-1-methyl-1H-indazol-6-yl)-1H-pyrazolo[4,3-b]pyridin-3-amine]	413
Cn1nc(C(=O)N2CCCC(F)C2)c2ccc(Nc3n[nH]c4cccnc34)cc21 (stereo not shown) [Example 163, (3-fluoro-1-piperidyl)-[1-methyl-6-(1H-pyrazolo[4,3-b]pyridin-3-ylamino)indazol-3-yl]methanone]	2210
O=C(O)Cn1nc(Cl)c2cc(Nc3n[nH]c4cccnc34)ccc21 [Example 278, 2-(5-((1H-pyrazolo[4,3-b]pyridin-3-yl)amino)-3-chloro-1H-indazol-1-yl)acetic acid]	1560
Cc1c2cc(Nc3n[nH]c4cccnc34)ccc2nn1C1CCCC1 [Example 68, N-(2-cyclopentyl-3-methyl-2H-indazol-5-yl)-1H-pyrazolo[4,3-b]pyridin-3-amine]	> 10000
Cn1nc(C(=O)NCCS(C)(=O)=O)c2ccc(Nc3n[nH]c4cccnc34)cc21 [Example 159, 1-methyl-N-(2-methylsulfonylethyl)-6-(1H-pyrazolo[4,3-b]pyridin-3-ylamino)indazole-3-carboxamide]	3940
Cc1cc(Cn2cc3ncc(Nc4n[nH]c5nccnc45)cc3n2)no1 [Example 145, N-(2-((5-methylisoxazol-3-yl)methyl)-2H-pyrazolo[4,3-b]pyridin-6-yl)-1H-pyrazolo[3,4-b]pyrazin-3-amine]	> 10000
Cc1nn(CC(=O)O)c2ccc(Nc3n[nH]c4cccnc34)cc12 [Example 135, 2-(5-((1H-pyrazolo[4,3-b]pyridin-3-yl)amino)-3-methyl-1H-indazol-1-yl)acetic acid]	832
COc1ccc2[nH]nc(Nc3ccc4c(C5CC5)nn(C)c4c3)c2c1 [Example 47, N-(3-cyclopropyl-1-methyl-1H-indazol-6-yl)-5-methoxy-1H-indazol-3-amine]	> 10000
Cn1cc2c(Cl)cc(Nc3n[nH]c4nccnc34)cc2n1 [Example 10, N-(4-chloro-2-methyl-2H-indazol-6-yl)-1H-pyrazolo[3,4-b]pyrazin-3-amine]	515
Cc1noc(Cn2nc(C)c3cc(Nc4n[nH]c5cccnc45)ccc32)n1 [Example 126, N-(3-methyl-1-((3-methyl-1,2,4-oxadiazol-5-yl)methyl)-1H-indazol-5-yl)-1H-pyrazolo[4,3-b]pyridin-3-amine]	264
Cc1nn(C)c2ccc(Nc3n[nH]c4cccnc34)cc12 [Example 108, N-(1,3-dimethyl-1H-indazol-5-yl)-1H-pyrazolo[4,3-b]pyridin-3-amine]	345
Cc1nn(C2CC2)c2ncc(Nc3n[nH]c4cccnc34)cc12 [Example 263, 1-cyclopropyl-3-methyl-N-(1H-pyrazolo[4,3-b]pyridin-3-yl)pyrazolo[3,4-b]pyridin-5-amine]	410
Cn1nc(C2CC2)c2ccc(Nc3n[nH]c4cc(F)ccc34)cc21 [Example 11, N-(3-cyclopropyl-1-methyl-1H-indazol-6-yl)-6-fluoro-1H-indazol-3-amine]	4220
Cc1cc(Cn2cc3ncc(Nc4n[nH]c5cccnc45)cc3n2)no1 [Example 144, N-(2-((5-methylisoxazol-3-yl)methyl)-2H-pyrazolo[4,3-b]pyridin-6-yl)-1H-pyrazolo[4,3-b]pyridin-3-amine]	> 10000
CC(C)COc1nn(C)c2cc(Nc3n[nH]c4cccnc34)ccc12 [Example 244, N-(3-isobutoxy-1-methyl-1H-indazol-6-yl)-1H-pyrazolo[4,3-b]pyridin-3-amine]	231
Cc1nn(C2CCNCC2)c2ccc(Nc3n[nH]c4cccnc34)cc12 [Example 90, N-(3-methyl-1-(piperidin-4-yl)-1H-indazol-5-yl)-1H-pyrazolo[4,3-b]pyridin-3-amine]	> 10000
Cc1nn(CCO)c2ncc(Nc3n[nH]c4cccnc34)cc12 [Example 256, 2-[3-methyl-5-(1H-pyrazolo[4,3-b]pyridin-3-ylamino)pyrazolo[3,4-b]pyridin-1-yl]ethanol]	> 10000

Now those with a lower EC50, led by results:

EC50 [nM]	SMILES
150	Cc1cc(Nc2n[nH]c3nccnc23)cc2c1cnn2C [Example 51, N-(1,4-dimethyl-1H-indazol-6-yl)-1H-pyrazolo[3,4-b]pyrazin-3-amine]
160	CC[C@H](C)Cn1nc(C)c2cc(Nc3n[nH]c4cccnc34)cnc21 [Example 155, 3-methyl-1-[(2S)-2-methylbutyl]-N-(1H-pyrazolo[4,3-b]pyridin-3-yl)pyrazolo[3,4-b]pyridin-5-amine]
81	Cc1nn(Cc2noc3ccccc23)c2ccc(Nc3n[nH]c4cccnc34)cc12 [Example 92, N-(1-(benzo[d]isoxazol-3-ylmethyl)-3-methyl-1H-indazol-5-yl)-1H-pyrazolo[4,3-b]pyridin-3-amine]
51	Cn1ncc2c(Cl)cc(Nc3n[nH]c4ncccc34)cc21 [Example 6, N-(4-chloro-1-methyl-1H-indazol-6-yl)-1H-pyrazolo[3,4-b]pyridin-3-amine]
49	C=C(C)Cn1nc(C)c2cc(Nc3n[nH]c4nccnc34)ccc21 [Example 128, N-(3-methyl-1-(2-methylallyl)-1H-indazol-5-yl)-1H-pyrazolo[3,4-b]pyrazin-3-amine]
47	Cc1nn(CC2CCC2)c2ccc(Nc3n[nH]c4cccnc34)cc12 [Example 72, N-(1-(cyclobutylmethyl)-3-methyl-1H-indazol-5-yl)-1H-pyrazolo[4,3-b]pyridin-3-amine]
202	Cn1cc2cc(Nc3n[nH]c4nccnc34)ccc2n1 [Example 83]
146	Cn1nc(OCC2(C)COC2)c2ccc(Nc3n[nH]c4cccnc34)cc21 [Example 194, N-[1-methyl-3-[(3-methyloxetan-3-yl)methoxy]indazol-6-yl]-1H-pyrazolo[4,3-b]pyridin-3-amine]
224	Cc1cc(COc2nn(C)c3cc(Nc4n[nH]c5cccnc45)ccc23)no1 [Example 183, N-(1-methyl-3-((5-methylisoxazol-3-yl)methoxy)-1H-indazol-6-yl)-1H-pyrazolo[4,3-b]pyridin-3-amine]
116	Cn1nc(C(=O)NC2CC(F)(F)C2)c2ccc(Nc3n[nH]c4cccnc34)cc21 [Example 174]
10	[2H]C([2H])([2H])n1nc(C2CC2)c2ccc(Nc3n[nH]c4nccnc34)cc21 [Example 22, N-(3-cyclopropyl-1-(methyl-d3)-1H-indazol-6-yl)-1H-pyrazolo[3,4-b]pyrazin-3-amine]
160	Cc1nn(CC(C)(C)C)c2ncc(Nc3n[nH]c4cccnc34)cc12 [Example 262, 1-(2,2-dimethylpropyl)-3-methyl-N-(1H-pyrazolo[4,3-b]pyridin-3-yl)pyrazolo[3,4-b]pyridin-5-amine]
187	Cc1nn(CC2CCC2)c2ccc(Nc3n[nH]c4ncccc34)cc12 [Example 75, N-(1-(cyclobutylmethyl)-3-methyl-1H-indazol-5-yl)-1H-pyrazolo[3,4-b]pyridin-3-amine]
65.8	Cn1nc(OCc2ccncc2)c2ccc(Nc3n[nH]c4cccnc34)cc21 [Example 238, N-(1-methyl-3-(pyridin-4-ylmethoxy)-1H-indazol-6-yl)-1H-pyrazolo[4,3-b]pyridin-3-amine]
157	Cc1cc(Cn2nc(C)c3cc(Nc4n[nH]c5ncccc45)ccc32)no1 [Example 77, N-(3-methyl-1-((5-methylisoxazol-3-yl)methyl)-1H-indazol-5-yl)-1H-pyrazolo[3,4-b]pyridin-3-amine]
63	Cc1cc(Cn2nc(C)c3cc(Nc4n[nH]c5cccnc45)ccc32)on1 [Example 130, N-(3-methyl-1-((3-methylisoxazol-5-yl)methyl)-1H-indazol-5-yl)-1H-pyrazolo[4,3-b]pyridin-3-amine]
45	CCCCn1nc(C)c2cc(Nc3n[nH]c4cccnc34)ccc21 [Example 114, N-(1-butyl-3-methyl-1H-indazol-5-yl)-1H-pyrazolo[4,3-b]pyridin-3-amine]
43	Cn1nc(C2CC2)c2ccc(Nc3n[nH]c4ncccc34)cc21 [Example 13, N-(3-cyclopropyl-1-methyl-1H-indazol-6-yl)-1H-pyrazolo[3,4-b]pyridin-3-amine]
76	Clc1cc(Nc2n[nH]c3cccnc23)cc2cnn(CC3CCC3)c12 [Example 65, N-(7-chloro-1-(cyclobutylmethyl)-1H-indazol-5-yl)-1H-pyrazolo[4,3-b]pyridin-3-amine]
